Data on 13 compounds can be found in patent US6001880A, “Alkylenediamine derivative, anti-ulcer drug, and antibacterial drug” (Shiseido Co., Ltd., priority 1997, dated 1999).

The test system of data set [1] is isolated gastric fundic gland. Kind of data set: CAP: Acid Secretion Inhibition Test In Vitro ([14C]-aminopyrine uptake). The class given is cell-based, rabbit (male Japanese White). The note with it: Oryctolagus cuniculus; final concentration 10^-5 M; histamine 10^-5 M stimulation; read-out: CAP: acid secretion inhibitory rate. How it is done:
CAP: Acid Secretion Inhibition Test In Vitro
The acid secretion inhibitory activity in a cell level is studied. It can also be used for studying the mechanism of the effect.
First, an isolated gastric fundic gland sample was prepared. Namely, a male Japanese White rabbit (2.5 to 3 kg) was anesthetized to death with Nembutal™ and then the abdomen was incised. Immediately thereafter, the stomach was removed and, after its pyloric and cardiac antrum were severed, incised along its greater curvature into two sheets. The gastric contents adhering to the mucosal surface was washed out with ice-cooled PBS (-) and then carefully washed therein. The gastric wall was spread on a cork board with its mucosal surface facing up and the feed and mucus thereon were completely removed with sterile gauze. The mucosa was separated therefrom by a spatula and then collected in ice-cooled PBS (-). After being washed twice with PBS (-), the mucosa was minced into 2-3 mm^3 pieces by scissors. These pieces were further washed twice with a nutrient solution. The nutrient solution comprises 132.4 mM of NaCl, 5.4 mM of KCl, 5 mM of Na2 HPO4. 12H2 O, 1 mM of NaH2 PO4.2H2 O, 1.2 mM of MgSO4, 1 mM of CaCl2, 25 mM of HEPES, 2 mg/ml of glucose, and 1 mg/ml of BSA.
Into 70 ml of the nutrient solution containing 1 mg/ml of collagenase, minced mucosal pieces were dispersed and intensely stirred in a conical flask with a stirrer at 37° C. for 40 to 60 minutes. During this period, 100% O2 was sprayed on the nutrient solution surface and the pH was appropriately measured such that it was immediately adjusted to pH 7.4, when the value was therebelow, with a base. The nutrient solution was added to the reaction solution so as to attain the total amount of about 200 ml. After being filtered through a mesh, the suspension was divisionally introduced into 50 ml centrifuge tubes and left for 15 minutes such that gastric fundic gland was deposited. The supernatant was repeatedly removed by an aspirator, dispersed in the nutrient solution, and then left such that the gastric fundic gland was washed three times. At this time, without using a pipette, the suspension was alternately introduced into two centrifuge tubes so as to effect dispersion. The number of cells was counted under microscope and adjusted to 1.6×10^6 cells/ml.
Then, [^14 C]-aminopyrine uptake test was performed. After an Eppendorf tube was weighed, 10 μl (final concentration: 10^-5 M) of histamine dissolved in the above-mentioned nutrient solution, 10 μl (final concentration: […]) of the test compound dissolved in DMSO, and 10 μl (final concentration: 0.05 μCi/ml) of [^14 C]-aminopyrine diluted with the nutrient solution were introduced therein and then 970 μl of the isolated gastric fundic gland suspension prepared above was added thereto. Subsequently, this mixture was shaken at 37° C. for 40 minutes at 125 cycles/minute. After being centrifuged for 30 seconds, 200 μl of its supernatant was collected into a mini-vial, while the rest was removed by an aspirator. The gland pellet was completely dried as the tube with its lid being opened was kept for one night in a drying oven at 80° C. and then the lid was closed and the weight was determined at room temperature. Then 100 μl of 1N KOH was added thereto and the tube with its lid being closed was treated at 60° C. for 1 to 2 hours so as to dissolve the pellet. Then, the contents thereof were transferred to a mini-vial. Into the mini-vial containing the supernatant or gland pellet, 4 ml of Atomlite™ was added and then the radioactivity was measured by a liquid scintillation counter. Here, after the radioactivity of the gland pellet was corrected by using a sample in which 20 mM of NaSCN was added so as to cancel the hydrogen ion concentration gradient, the integration ratio of aminopyrine specifically trapped by the gland pellet was calculated. This experiment was performed in duplicate.
Here, its principle will be briefly explained. […]

Data set [2] deals with stress ulcer formation in rats. Put plainly: WIS: Restraint and Water Immersion Stress-Induced Ulcer Inhibition Test. The class given is in vivo, rat (male Crj:SD or Slc:SD). The note with it: 100 mg/kg oral, 10 minutes before 7 h restraint and water immersion (21° C.). How it is done:
WIS: Restraint and Water Immersion Stress-Induced Ulcer Inhibition Test
The degree of inhibition of the stress ulcer formation is tested.
Male Crj:SD or Slc:SD rats (6 to 7-week-old) were fasted overnight, but allowed free access to water. Each group has 5 to 8 of these rats. The sample compound was dissolved or suspended in an aqueous solution of 0.3% sodium carboxymethylcellulose or 0.05% Tween 80 and then was orally administered (100 mg/10 ml/kg). To a control group, the vehicle was administered. 10 minutes later, the rats were placed in a stress cage and immersed to the level of xipfoid process in a water bath (21° C.) for 7 hours. At the end of the stress, the rats were sacrificed by inhalation of ether or carbon dioxide. Then, the stomach of each was removed, inflated by injecting 10 ml of 5% formalin neutral buffer solution, and immersed in 1% formalin neutral buffer solution for 30 minutes or more to be fixed. The stomach was incised along the greater curvature and then the length of each erosion in the glandular portion was determined under dissecting microscope. The sum of the length of erosions per stomach was defined as ulcer index (UI).
The effect obtained when 100 mg/kg of the sample compound had been administered was expressed as ulcer formation inhibitory rate (%) as follows:
ulcer formation inhibitory rate (%)=(1-(UI in sample group/UI in control

For the next data set, the system named is mice. More on the design: species or system mouse (male Slc:ICR). The note with it: mouse, in vivo. How it is done: AT: Single Dose Toxicity Pretest
Male Slc:ICR mice (5-week-old) were used. Each group has 3 to 5 mice and each mouse was fasted, but allowed free access to water, for 4 to 5 hours from 9 a.m. in the test day. Then, 2,000 mg/10 ml/kg of the sample compound dissolved or suspended in an aqueous solution of 0.5% sodium carboxymethyl cellulose was orally administered thereto. To a control, only the vehicle was administered. […] The body weight was measured before and after the fasting as well as at the same time everyday. The dead animals were immediately subjected to autopsy and their organs were observed by naked eyes. Also, the living animals were sacrificed with ether or carbon dioxide one week after the administration and then their organs were observed by naked eyes.
The toxicity at the single dose of 2,000 mg/kg of the sample compound was expressed as being classified into 5 levels.
5: mortality rate is 0%; no toxicity is found at all both in behavior and organs.
4: Mortality rate is 0%; while no toxicity is found in organs, slight toxicity is observed in behavior or body weight increase.
3: While there is a dead animal (though not all the animals are dead), no toxicity is found in organs.
2: Regardless of whether there is a dead animal or not, toxicity is found in organs.
1: All the animals are dead.

A short description of data set [3]: MTT: Cell Damaging and Protecting Effect Test. The note with it: rabbit, gastric corpus mucosa cells, final concentration 10^-4 M, smaller value is better, read-out: MTT: cell damaging rate. The class given is cell-based, rabbit (male Japanese White). The source says:
MTT: Cell Damaging and Protecting Effect Test
It is confirmed that there is no toxicity in cell level. Those having a toxicity in cell level are inappropriate as an anti-ulcer drug.
A male Japanese White rabbit (2.5 to 3 kg) was anesthetized to death by Nembutal™ and, immediately thereafter, its stomach was removed. The greater curvature of the stomach was incised so as to remove the stomach contents therefrom. After the mucosal surface was washed with HBSS (Hanks' Balanced Salt Solution), the stomach in ice-cooled HBSS was transferred to a laboratory. Then, after the pyloric antrum was removed, the gastric corpus mucosa was separated by a spatula and then minced into 2 to 3 mm^3 pieces in BME (Basal Medium Eagle). Thereafter, these pieces were shaken at 120 to 130 cycles/minute for 15 minutes at 37° C. in BME 60 ml containing 280 U/ml of dispase and 30 to 50 U/ml of collagenase. Here, the concentration of collagenase was appropriately changed for each lot in view of the state of cells. The pieces were washed twice with EBSS (Earle's Balanced Salt Solution) containing 1 mM of EDTA and then shaken in MEM (Minimum Essential Medium) containing 1 mM of EDTA at 37° C. for 5 minutes. Subsequently, they were shaken in the dispase and collagenase having the same concentrations as those mentioned above for 15 minutes so as to remove the supernatant and then further shaken at 37° C. for 50 to 60 minutes at 120 to 130 cycles/minute. Then, after being washed twice with HBSS, Ham F12 containing 2% of Ultrocer G™ was used to attain the concentration of 1×10^6 cells/ml. Thus formed suspension was dispensed in each well of a 96-well plate by 200 μl. The plate was incubated in the atmosphere composed of 5% CO2 and 95% air at 37° C. for three days so as to attain a confluent state and then subjected to MTT assay.
The sample compound was dissolved in DMSO so as to attain a concentration of 10^-2 M and then diluted with HBSS containing 2% of Ultrocer G™ so as to attain a final concentration of 10^-4 M. To each group, which 8 wells were used for, 10 μl of MTT reagent was added immediately after 100 μl of the medium in each well was exchanged for same volume of the resulting solution of the sample compound. After being incubated in an atmosphere composed of 5% CO2 and 95% air at 37° C. for 4 hours, thus formed solution was centrifuged and then its supernatant was discarded. Subsequently, 100 μl of 100% ethanol was added to the residue so as to dissolve MTT formazan. Then, the absorbance (OD: 570 to 630) was measured by a microplate reader. This method utilizes a phenomenon in which MTT is changed to MTT formazan only by mitochondria of living cells so as to change color.
The cell damaging or cell protecting effect of the sample compound at the final concentration of 10^-4 M was expressed as cell damaging rate (%) as follows:
cell damaging rate (%)=(1-(absorbance in sample group/absorbance in control
Accordingly, the smaller value is better in the cell damaging rate.

Regarding `CCN(CC)CCNC(=O)c1ccc(OC/C=C(\C)CCC=C(C)C)c(OC)c1` [Example 30], the inhibition at 10 µM in data set [1] is 100%. The “WIS: ulcer formation inhibitory rate” value in data set [2] is on record as 84%. Also, the “AT: single dose toxicity level” value in the data set with mice was 5.

Take `CCN(CC)CCNC(=O)c1cc(OC)c(OC)c(OC/C=C(\C)CCC=C(C)C)c1` [Example 39]: the “WIS: ulcer formation inhibitory rate” value in data set [2] was found to be 87%. Further, the “AT: single dose toxicity level” value in the data set on mice was found to be 4.

As to `CCN(CC)CCNC(=O)c1ccc(OCC=C(C)C)nc1` [Example 46], the “WIS: ulcer formation inhibitory rate” value in data set [2] came out at 65%. The cytotoxicity at 4 h, 100 µM in data set [3] was -3%. Moreover, in the data set on mice, the “AT: single dose toxicity level” value is given as 3.

As for `CC(C)=CCOc1ccc(C(=O)NCCN(C(C)C)C(C)C)cn1` [Example 48], the “WIS: ulcer formation inhibitory rate” value in data set [2] was 75%. Also, the cytotoxicity at 4 h, 100 µM in data set [3] was -13%. Moreover, the “AT: single dose toxicity level” value in the data set on mice came out at 3.

With `CCN(CC)CCNC(=O)c1ccc(OC/C=C(\C)CCC=C(C)C)nc1` [Example 50], the inhibition at 10 µM in data set [1] came to 95.2%. Besides, in data set [2], the “WIS: ulcer formation inhibitory rate” value was 42%. Further, the cytotoxicity at 4 h, 100 µM in data set [3] was found to be 4%.

Turning to `CC(C)=CCC/C(C)=C/COc1ccc(C(=O)NCCN(C(C)C)C(C)C)cn1` [Example 51], in data set [1], the inhibition at 10 µM was 94.7%. Moreover, in data set [2], the “WIS: ulcer formation inhibitory rate” value is 72%. In addition, the cytotoxicity at 4 h, 100 µM in data set [3] was 15%.

For `CCN(CC)CCNC(=O)c1ccc(CC(C)C)c(O)c1` [Example 56], the inhibition at 10 µM in data set [1] stood at 53.4%. The “WIS: ulcer formation inhibitory rate” value in data set [2] was 69%. Besides, the cytotoxicity at 4 h, 100 µM in data set [3] stood at 11%.

As to `CC(C)Cc1cc(C(=O)NCCN(C(C)C)C(C)C)ccc1OCc1ccc(F)cc1` [Example 57], in data set [1], the inhibition at 10 µM was 100%. The “WIS: ulcer formation inhibitory rate” value in data set [2] is recorded as 45%. Also, the cytotoxicity at 4 h, 100 µM in data set [3] turned out to be 43%.

For the compound `CC(C)Oc1ccc(C(=O)NCCN(C(C)C)C(C)C)cc1` [Example 59], in data set [1], the inhibition at 10 µM turned out to be 47.5%. Further, the “WIS: ulcer formation inhibitory rate” value in data set [2] worked out at 89%. Also, the cytotoxicity at 4 h, 100 µM in data set [3] worked out at 39%.

On to `CCCCCc1ccc(C(=O)NCCN(C(C)C)C(C)C)cc1` [Example 62], for which the inhibition at 10 µM in data set [1] amounted to 101%. Further, the “WIS: ulcer formation inhibitory rate” value in data set [2] was 72%. Further, the cytotoxicity at 4 h, 100 µM in data set [3] turned out to be 40%.

Consider `CC(C)c1ccc(C(=O)NCCN(C(C)C)C(C)C)cc1` [Example 64], for which, in data set [1], the inhibition at 10 µM worked out at 72.7%. Besides, the “WIS: ulcer formation inhibitory rate” value in data set [2] is on record as 82%. In addition, the cytotoxicity at 4 h, 100 µM in data set [3] is 39%.

In the case of `CC(C)N(CCNC(=O)c1cccc(CN2CCCCC2)c1)C(C)C` [Example 66], in data set [1], the inhibition at 10 µM came to 38.3%. In data set [2], the “WIS: ulcer formation inhibitory rate” value is given as 53%. Also, the cytotoxicity at 4 h, 100 µM in data set [3] was found to be 12%.

Take `CC(C)N(CCNC(=O)c1ccc(NC(=O)C(C)(C)C)cc1)C(C)C` [Example 69]: the inhibition at 10 µM in data set [1] turned out to be 31.5%. The “WIS: ulcer formation inhibitory rate” value in data set [2] is 95%. The cytotoxicity at 4 h, 100 µM in data set [3] turned out to be 35%.
